Laboratory results reported in patent US7776862B2, “Pyridyl and phenyl substituted piperazine-piperidines with CXCR3 antagonist activity” (Schering Corporation, priority 2005, dated 2010).

molecular target: T1, human CXCR3 (N-delta 4) (Homo sapiens, UniProt P49682); test: Human CXCR3 (N-delta 4) scintillation proximity assay (SPA), [125I] IP-10 binding; conditions: IC50 rating; Ba/F3-hCXCR3 (N-delta 4) membranes, 25 pM [125I] IP-10
T1 construct: CD8 leader; Flag tag; expressed in transfected cells; membranes used
T1 sequence (P49682 5-368 limits assumed): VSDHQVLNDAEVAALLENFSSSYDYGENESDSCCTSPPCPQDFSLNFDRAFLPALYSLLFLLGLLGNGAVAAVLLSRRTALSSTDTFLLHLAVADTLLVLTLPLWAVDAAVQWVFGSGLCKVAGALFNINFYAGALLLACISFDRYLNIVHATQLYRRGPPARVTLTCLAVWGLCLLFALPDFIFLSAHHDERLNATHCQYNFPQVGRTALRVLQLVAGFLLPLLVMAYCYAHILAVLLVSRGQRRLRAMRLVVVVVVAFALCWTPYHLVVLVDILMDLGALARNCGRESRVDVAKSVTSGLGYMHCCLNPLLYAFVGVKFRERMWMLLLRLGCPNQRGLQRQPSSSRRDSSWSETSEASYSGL
Outline: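 IP-10 and compound titrations added together. The receptor source was SPA beads bearing membranes from Ba/F3 cells transfected with human CXCR3 (N-delta 4) carrying a CD8 leader and Flag tag.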

`N#Cc1ccc(CN2CCC(N3CCN(c4ncc(C(=O)NCc5ccc(Cl)c(Cl)c5)cc4Cl)CC3)CC2)cc1` [compound 317] and `N#Cc1ccc(CN2CCC(N3CCN(c4ncc(C(=O)NCc5ccc(F)cc5)cc4Cl)CC3)CC2)cc1` [compound 321] fall in the same range of IC50: 0.025 to 0.1 µM for the first, 0.025 to 0.1 µM for the second.

First: CC[C@H]1CN(c2ncc(C(=O)NC3CC3)cc2Cl)CCN1C1CCN(Cc2ccc(F)cc2C(F)(F)F)CC1 [compound 318]
Second: CC[C@H]1CN(c2ncc(C(=O)N(C)OC)cc2Cl)CCN1C1CCN(Cc2ccc(Cl)cc2F)CC1 [compound 343]
The IC50 of the first is lower: 0.025 to 0.1 µM for the first, over 0.1 µM for the second. The first is the more potent here.

First: C[C@H]1CN(c2ncc(C(=O)NCc3ccc(Cl)c(Cl)c3)cc2Cl)CCN1C1CCN(C(=O)c2ccc(C#N)cc2)CC1 [compound 319]
Second: C[C@H]1CN(c2ncc(C(=O)NCC3CCCCC3)cc2Cl)CCN1C1CCN(C(=O)c2ccc(C#N)cc2)CC1 [compound 335]
The IC50 of the first is lower: 0.025 to 0.1 µM for the first, over 0.1 µM for the second. The first is the more potent here.

First: CNC(=O)c1cnc(N2CCN(C3CCN(Cc4ccc(C)cc4)CC3)[C@@H](C)C2)c(Cl)c1 [compound 320]
Second: CNC(=O)c1cnc(N2CCN(C3CCN(Cc4cccc(C)c4)CC3)[C@@H](C)C2)c(Cl)c1 [compound 334]
The IC50 of the first is lower: 0.025 to 0.1 µM for the first, over 0.1 µM for the second. The first is the more potent here.

First: COc1ccc(CN2CCC(N3CCN(c4ncc(C(=O)NCc5ccc(C(F)(F)F)cc5)cc4Br)CC3)CC2)cc1 [compound 322]
Second: O=C(NCc1ccc(C(F)(F)F)cc1)c1cnc(N2CCN(C3CCN(Cc4ccc(Br)cc4)CC3)CC2)c(Br)c1 [compound 325]
The IC50 of the first is lower: 0.025 to 0.1 µM for the first, over 0.1 µM for the second.

First: O=C(NCCOc1ccccc1)c1cnc(N2CCN(C3CCN(Cc4ccc(Cl)cc4)CC3)CC2)c(Cl)c1 [compound 323]
Second: COc1ccc(CN2CCC(N3CCN(c4ncc(C(=O)NCCOc5ccccc5)cc4Cl)CC3)CC2)cc1 [compound 331]
The IC50 of the first is lower: 0.025 to 0.1 µM for the first, over 0.1 µM for the second.

First: N#Cc1ccc(CN2CCC(N3CCN(c4ncc(C(=O)NCc5ccc(C(F)(F)F)cc5)cc4Br)CC3)CC2)cc1 [compound 324]
Second: N#Cc1ccc(CN2CCC(N3CCN(c4ncc(C(=O)NCc5ccc(C(F)(F)F)cc5)cc4Cl)CC3)CC2)cc1 [compound 336]
The IC50 of the first is lower: 0.025 to 0.1 µM for the first, over 0.1 µM for the second.

`CCNC(=O)c1cnc(N2CCN(C3CCN(C(C)(C)c4ccc(Cl)cc4)CC3)[C@@H](C)C2)c(Cl)c1` [compound 326] and `CCNC(=O)c1cnc(N2CCN(C3CCN([C@H](CC)c4ccc(Cl)cc4)CC3)[C@@H](C)C2)c(Cl)c1` [compound 330] cannot be ordered by IC50: over 0.1 µM for the first, over 0.1 µM for the second.

`C[C@H]1CN(c2ncc(C(=O)NCc3ccc(F)c(F)c3)cc2Cl)CCN1C1CCN(CCC(=O)c2ccc(Cl)cc2)CC1` [compound 327] and `CNC(=O)c1cnc(N2CCN(C3CCN(C(=O)c4ccc(Cl)cc4)CC3)[C@@H](C)C2)c(Cl)c1` [compound 337] cannot be ordered by IC50: over 0.1 µM for the first, over 0.1 µM for the second.

`CNC(=O)c1cnc(N2CCN(C3CCN([C@@H](C)c4ccc(Cl)cc4)CC3)[C@@H](C)C2)c(Cl)c1` [compound 328] and `CCNC(=O)c1cnc(N2CCN(C3CCN(C(CC)c4ccc(Cl)cc4)CC3)[C@@H](C)C2)c(Cl)c1` (stereo partly drawn) [compound 339] cannot be ordered by IC50: over 0.1 µM for the first, over 0.1 µM for the second.

`N#Cc1ccc(C(=O)N2CCC(N3CCN(c4ncc(C(=O)NCCOc5ccccc5)cc4Br)CC3)CC2)cc1` [compound 329] and `N#Cc1ccc(CN2CCC(N3CCN(c4ncc(C(=O)NCCOc5ccccc5)cc4Cl)CC3)CC2)cc1` [compound 338] cannot be ordered by IC50: over 0.1 µM for the first, over 0.1 µM for the second.

`CC[C@H]1CN(c2ncc(C(N)=O)cc2Cl)CCN1C1CCN(C(=O)c2ccc(Cl)cc2)CC1` [compound 332] and `CC[C@H]1CN(c2ncc(C(=O)NN)cc2Cl)CCN1C1CCN(C(=O)c2ccc(Br)cc2)CC1` [compound 342] cannot be ordered by IC50: over 0.1 µM for the first, over 0.1 µM for the second.

`CNC(=O)c1cnc(N2CCN(C3CCN(Cc4ccc(Cl)nc4)CC3)[C@@H](C)C2)c(Cl)c1` [compound 333] and `CNC(=O)c1cnc(N2CCN(C3CCN(Cc4c(F)cc(F)cc4F)CC3)[C@@H](C)C2)c(Cl)c1` [compound 341] cannot be ordered by IC50: over 0.1 µM for the first, over 0.1 µM for the second.

`CCOC(CNC(=O)c1cnc(N2CCN(C3CCN(Cc4ccc(Cl)cc4)CC3)[C@@H](C)C2)c(Cl)c1)OCC` [compound 340] was tested, and the IC50 was over 0.1 µM.
